Results published in US11534415B2, “Use of colchicine to inhibit tumor growth and metastases” (Murray and Poole Enterprises, LTD., priority 2018, dated 2022).

Assays:
[1] = system: subjects with a first episode of acute pericarditis; conditions: at 18 months; aspirin alone or plus colchicine 1.0 to 2.0 mg first day then 0.5 to 1.0 mg/day for 3 months; p=0.004; cited from earlier work
[2] = system: subjects with a first episode of recurrent pericarditis; conditions: actual rates at 18 months; aspirin alone or plus colchicine 1.0-2.0 mg first day then 0.5-1.0 mg/d for 6 months; cited from earlier work
[3] = system: commonly used tumor models; test: Example 5: anti-tumor effects of colchicine in animals (tumor models); format: in vivo; conditions: vs placebo control group
Protocol: A sufficient amount of specimen of a suitable animal species are included in this study utilizing commonly used tumor models. A therapeutically effective amount of colchicine is administered to the test animals. Placebo is administered to a control group. Tumor growth is induced in all animals.

[4] = system: commonly used tumor cell lines with or without combination with cultivated PBMCs; test: Example 6: anti-tumor effects of colchicine in vitro; format: cell-based; conditions: incubation with colchicine and/or cultivation with pretreated PBMCs
From the text: A suitable in vitro model for studying the anti-tumor effects of drugs is utilized for this test. Such a test may include commonly used tumor cell lines with or without combination with cultivated PBMCs.

[5] = system: subjects with stable coronary disease; conditions: colchicine 0.5 mg/day in addition to statins and other standard secondary prevention therapies; median of 3 years; cited from earlier work
[6] = system: human lipopolysaccharide (LPS) stimulated peripheral blood mononuclear cells (PBMC); conditions: colchicine added to LPS stimulated PBMC; cited from earlier work
[7] = system: co-cultures of PBMC with either HT-29 or RKO human colon cancer cells; conditions: co-culture with HT-29 or RKO cells; cited from earlier work
[8] = system: subjects with cancer or in risk of cancer; test: Example 4: randomized observer blinded end-point trial of sustained release colchicine added to standard anti-cancer therapies; conditions: long-term low dose sustained release colchicine 0.5 mg/day vs standard therapy alone
Protocol: To assess the therapeutic effects of a sustained release formulation in subjects with or in subjects with an increased risk of cancer, a prospective randomized observer blinded end-point trial was conducted to determine whether adding 0.5 mg/day of colchicine to standard anti-cancer therapies inhibits, delays, or reduces tumor growth or metastases in a cancer subject.
A sufficient amount of subjects with cancer or in risk of cancer are randomized to long-term low dose sustained release colchicine or to standard therapy alone.

In the case of `CC(=O)Oc1ccccc1C(=O)O` [aspirin], the recurrence rate [1] is listed as 32.3% and the recurrence rate [2] is listed as 50.6%.

In the case of `COc1cc2c(c(OC)c1OC)-c1ccc(OC)c(=O)cc1[C@@H](NC(C)=O)CC2` [colchicine, (−)-N-[(7S, 12aS)-1,2,3,10-tetramethoxy-9-oxo-5,6,7,9-tetrahydrobenzo[a]heptalen-7-yl]-acetamide], the tumor growth [3] is listed as “tumor growth is prevented and/or reduced”, the “growth of tumor cell lines” value [4] is listed as “inhibits or reduces growth of tumor cell lines” and the recurrence rate [1] is listed as 10.7%. The recurrence rate [2] was 24.0%, the “prevention of cardiovascular events” value [5] was “appeared effective for the prevention of cardiovascular events” and the IL-1β release [6] was “increased”. The TNF-α release [6] was “decreased”, the “IL-1β production by cancer cells-stimulated PBMC” value [7] was “promoted cancer cells-stimulated PBMC to produce IL-1β” and the “release of TNF-α and IL-10” value [7] was “inhibit the release of tumor necrosis factor (TNF)-α and IL-10”. The “cancer incidence and mortality” value [8] was “significantly lower cancer incidence and mortality”.
